Test results taken from patent publication US10899763B2, “Crystalline forms of salts of fused penta-cyclic dihydrodiazepinocarbazolones, and uses thereof” (BEIGENE, LTD., priority 2017, dated 2021).
Where two headings read alike, the source gives them in different places.

Tests used:
[1] = test system: MDA-MB-231 cells; experiment: Synthetic lethality, CellTiter-Glo cell viability, MDA-MB-231; type: cell-based; details: Homo sapiens; MDA-MB-231, BRCA wildtype; read-out: EC50
Method: MDA-MB-231 cells that is not BRCA gene mutant or other homologous recombination deficient were maintained in DMEM supplemented with fetal bovine serum (10% FBS), 100 units/ml penicillin and 0.1 mg/ml streptomycin. BRCA1-deficient cell line MDA-MB-436 was maintained in RPMI-1640 supplemented with 10% FBS, 100 units/ml penicillin and 0.1 mg/ml streptomycin. Both two cell lines were kept at 95% humidity and 5% CO2 in a 37° C. incubator.
The number of tumor cells seeded per well of a 96-well plate was optimized for each cell line to ensure logarithmic growth over the 7 days treatment period. Cells were left to attach for 16 hours and then treated with specific concentrations of test compounds. Following a 7-day exposure to the compound, the growth-inhibitory activity of compounds was determined using CellTiter-Glo luminescent cell viability assay (Promega). Luminescent signal was measured using PHERAstar FS reader (BMG Labtech). Cell viability was expressed as relative to mock treatment control. EC50 values for growth inhibition were calculated by fitting dose-dependent data to the four-parameter logistic model using XLfit software.

[2] = test system: H209 SCLC xenograft; experiment: H209 SCLC xenograft model, combination with TMZ; type: in vivo, mouse; details: combination of Compound 1 and TMZ, multiple cycles
From the text: (§1) The in vivo efficacy of Compound 1 was explored in H209 SCLC xenograft model to evaluate the combination effect of Compound 1 and Temozolomide (TMZ), a DNA alkylating agent. TMZ single agent was quite effective in this model. […] However, resistance occurred quickly during the second cycle. […] In order to investigate whether Compound 1 could overcome the TMZ resistance, TMZ-resistant (TR) H209 tumors were generated by treating the H209 tumors with multiple cycles of TMZ in vivo. […] Mice with established intracranial H209 xenografts were used to further investigate the combination activity of Compound 1 and TMZ on SCLC in brain.

[3] = test system: TMZ-resistant (TR) H209 tumors; experiment: TMZ-resistant H209-TR xenograft mouse model; type: in vivo; details: combination of Compound 1 and TMZ
From the text: as §1

[4] = test system: intracranial H209 xenografts; experiment: Intracranial H209 xenograft model; type: in vivo, Mice; details: addition of Compound 1 to TMZ
From the text: as §1

[5] = Brain penetration; details: in vivo
[6] = Nonclinical toxicity, single and repeat dose up to 28 days, rats; type: in vivo
[7] = Nonclinical toxicity, single and repeat dose up to 28 days, dogs; type: in vivo
[8] = Ames assay; type: cell-based
[9] = Pharmacokinetics in rat; type: in vivo
Method: (§2) The species used for the pharmacokinetic studies were rat and dog. Compound 1 had good to excellent oral bioavailability (>40%) in both species. Elimination half-lives ranged from 3.1 to 5.0 hours in rats and 1.5 to 2.5 hours in dogs after oral administration. […] Steady state volume of distribution in rats and dogs was 2.4 L/kg and 1.9 L/kg, respectively.

[10] = Pharmacokinetics in dog; type: in vivo
Method: as §2

[11] = Plasma protein binding, rat plasma; type: in vitro ADME
[12] = Tissue distribution and excretion after oral administration in rats; type: in vivo
Method: After oral administration in rats, Compound 1 was detected in all organs checked. The drug concentrations reached maximum at 0.25 to 1 hour post-dosing and decreased to less than 10% of the peak concentration at 24 hours post-dosing.
Compound 1 was primarily excreted in feces. The accumulative excretion amounts of Compound 1 in feces were 15% to 20% (up to 48 hours) after oral administration. Less than 1% of Compound 1 was excreted in urine and bile in rats.

[13] = Metabolism in human liver microsomes; type: in vitro ADME
[14] = Metabolism in dog liver microsomes; type: in vitro ADME
[15] = Metabolism in rat liver microsomes; type: in vitro ADME
[16] = Metabolism in mouse liver microsomes; type: in vitro ADME
[17] = Metabolism in monkey liver microsomes; type: in vitro ADME
[18] = test system: CYP isoform; experiment: CYP isoforms responsible for metabolism; type: in vitro ADME
[19] = test system: human CYP1A2; experiment: CYP induction, CYP1A2; type: in vitro ADME
[20] = test system: CYP2B6; experiment: CYP induction, CYP2B6; type: in vitro ADME, human
[21] = test system: CYP3A; experiment: CYP induction, CYP3A; type: in vitro ADME, human
[22] = Phase I clinical safety study; type: in vivo; details: BRCA1/2 mutant ovary cancer patients
[23] = test system: BRCA1 mutation breast cancer xenograft; experiment: BRCA1 mutation breast cancer xenograft model; type: in vivo; details: at much lower dose than olaparib
[24] = test system: PARP; details: for PARylation inhibition in tumor: 5.45 mg/kg single oral dose

SMILES: C[C@]12CCCN1CC1=NNC(=O)c3cc(F)cc4[nH]c2c1c34 [Compound 1, (R)-2-fluoro-10a-methyl-7,8,9,10,10a,11-hexahydro-5,6,7a,11-tetraazacyclohepta[def]cyclopenta-[a]fluoren-4(5H)-one]
- EC50 [1]: ~9 µM
- effect of combination with TMZ on resistance [2]: significantly delayed resistance without additional toxicity
- sensitivity of H209-TR lines to combination with TMZ [3]: remained sensitive
- animal survival compared to TMZ single agent [4]: significantly prolonged animal survival
- brain penetration [5]: significant brain penetration
- reversibility of toxicity [6]: reversible after 28-day recovery phase
- major target organ of toxicity ([6]; up to 28 days): bone marrow
- reversibility of toxicity [7]: reversible after 28-day recovery phase
- major target organ of toxicity ([7]; up to 28 days): bone marrow
- mutagenicity [8]: No mutagenicity
- accumulation following multiple oral dosing [9]: no accumulation
- accumulation following multiple oral dosing [10]: no accumulation
- Plasma protein binding (PPB) [11]: 84.9%
- excreted in urine and bile [12]: Less than 1%
- drug concentration in organs as % of the peak concentration ([12]; oral, 24 hours post-dosing): less than 10%
- metabolism rate in liver microsomes [13]: metabolized slowly
- metabolism rate in liver microsomes [14]: metabolized slowly
- metabolism rate in liver microsomes [15]: metabolized slowly
- metabolism rate in liver microsomes [16]: metabolized slowly
- metabolism rate in liver microsomes [17]: quickly
- major CYP isoform responsible for metabolism [18]: CYP3A
- induction of human CYP1A2 [19]: not an inducer
- induction of human CYP2B6 [20]: not an inducer
- induction of human CYP3A [21]: not an inducer
- clinical response [22]: partial or complete responses
- tumor regression [23]: significantly induces tumor regression
- PARylation inhibition in tumor ([24]; 0.5 hour after treatment): 98%
- PARylation inhibition in tumor ([24]; at 24 hours): 53%
- PARylation inhibition in tumor ([24]; through the first 12 hours): > 80%
- single oral dose at which potent inhibition of PARylation was observed ([24]; at 4 hours after single oral dose): ≥ 0.34 mg/kg
- concentration in tumor tissues needed to achieve at least 80% PARylation inhibition ([24]; dose titration and time course study): over 0.5 μmol/kg
